Measured values taken from patent US9763987B2, “Cyclic di-AMP induction of type I interferon” (priority 2010, dated 2017).

Assays:
[1] = tested on: bone marrow derived macrophages (BMM); assay: IFN-β bio-assay: samples delivered to BMM cytosol by digitonin, type I IFN read with ISRE-L929 luciferase reporter cells; assay type: cell-based, mouse; conditions: FIG. 3d
Experimental: Mouse bone marrow from 6-8 week old female mice was differentiated to bone marrow derived macrophages (BMM) as described previously (S3). Interferon responsive ISRE-L929 cells were cultured in ISRE media (DMEM, 2 mM glutamine, 1 mM pyruvate, 10% heat inactivated FBS, and penicillin-streptomycin). Induction of type-I interferon was assessed using BMMs plated in 96-well flat bottom tissue culture treated plates (10^5 cells/well) a minimum of 12 hours prior to use in BMM media (DMEM, 2 mM glutamine, 1 mM pyruvate, 10% CSF from 3T3 cells, and 20% heat inactivated FBS). Samples (10 μL) of L. monocytogenes supernatants, HPLC fractions, and cyclic di-AMP standard (Biolog Life Sciences Institute, […]) were mixed with a 10× volume of digitonin permeabilization solution (50 mM HEPES pH 7.0, 100 mM KCl, 3 mM MgCl2, 0.1 mM DTT, 85 mM Sucrose, 0.2% BSA, 1 mM ATP, 0.1 mM GTP, ±10 μg/mL Digitonin) (S4). Media was aspirated from the cells and replaced with 50 μL each sample mixture. Cells were incubated for 30 minutes at 37° C. […] Finally, 40 μL of luciferase substrate solution (20 mM Tricine, 2.67 mM MgSO4.7H2O, 0.1 mM EDTA, 33.3 mM DTT, 530 μM ATP, 270 μM acetyl CoA lithium salt, 470 μM luciferin, 5 mM NaOH, 265 μM magnesium carbonate hydroxide) was added to each well and luminescence was measured using a VICTOR3 luminometer (PerkinElmer). • 8. […]

WT and mutant BMMs = assay: IFN-β induction in various host strains (WT and knockout BMMs), ISRE L929 bioassay; assay type: cell-based, mouse; conditions: 3 μM with digitonin, 6 hours; WT vs myd88-trif−/−, irf3−/−, mays−/− macrophages; parallel to L. monocytogenes (IRF3 and STING dependent, MyD88/Trif and MAVS independent); FIG. 9
Experimental: BMMs were differentiated as described previously (S3). For mays−/−macrophages, heterozygous mice were used as a control. WT and mutant BMMs were plated in 24-well plates ([…]) the evening prior to use. For infections, 2×10^6 bacteria from 30° C. overnight cultures were washed with PBS and added to each well containing 500 μL of BMM media. For c-di-AMP treatment, synthetic standard was dissolved in digitonin solution to a final concentration of 3 μM. Media was aspirated from cells and replaced with 200 μL of c-di-AMP/digitonin mix. From this point on infections and c-di-AMP samples were treated the same. At 30 minutes wells were aspirated and replaced with fresh BMM media. At 1 hour post infection gentamycin (50 μg/mL) was added. For LPS treatment, 100 ng of sonicated LPS stock solution (50 μg/mL) was added to appropriate wells containing 500 μL of BMM media. Supernatants from all wells were collected and analyzed by ISRE L929 bioassay for IFN-β activity at 6 hours. • 10. Supporting References • S1. D. A. Portnoy, P. S. Jacks, D. J. Hinrichs, Role of hemolysin for the intracellular growth of Listeria monocytogenes. J. Exp. Med. 167, 1459 (1988). • S2. L. Phan-Thanh, T. Gormon, A chemically defined minimal medium for the optimal culture of Listeria. Int. J. Food Microbiol. 35, 91 (1997). • S3. […]

host IFN pathway = conditions: delivered to the host cytosol; reference 29; cited from earlier work

**Q.** For Nc1ncnc2c1ncn2[C@@H]1O[C@@H]2COP(=O)(O)O[C@H]3[C@@H](O)[C@H](n4cnc5c(N)ncnc54)O[C@@H]3COP(=O)(O)O[C@H]2[C@H]1O [c-di-AMP, cyclic di-adenosine monophosphate], which “IFN-β induction in macrophages” value ([1]; commercially available c-di-AMP delivered to the cytosol of murine BMMs) is on record?
**A.** dose-dependent response

**Q.** What about the “IFN-β inducing activity after treatment with snake venom phosphodiesterase (SVPD)” value ([1]; sample treated with SVPD) of the same molecule?
**A.** abolished the activity

**Q.** And the “host signaling pathway required for detection (type-I IFN)” value (WT and mutant BMMs)?
**A.** requires a parallel host-signaling pathway

**Q.** And the cell permeability (cells)?
**A.** not cell permeable

**Q.** What about the induction of inflammation (cells; added to the outside of cells) of the same molecule?
**A.** does not induce inflammation

**Q.** Which “activation of host IFN pathway” value (host IFN pathway) does the source give for Nc1nc2c(ncn2[C@@H]2O[C@@H]3COP(=O)(O)O[C@H]4[C@@H](O)[C@H](n5cnc6c(=O)[nH]c(N)nc65)O[C@@H]4COP(=O)(O)O[C@H]3[C@H]2O)c(=O)[nH]1 [c-di-GMP] here?
**A.** specifically activates the host IFN pathway
